# According to US12146005B2, “Compositions and methods for treatment of fungal infections” (THE UNIVERSITY OF SOUTHERN CALIFORNIA, priority 2019, dated 2024):
# “Also recorded” adds a separate entry of the source. Like-named read-outs stand apart in the source and are kept apart here. Bridge positions count the residues as written; N and C are the ends.
# Legend:
# C. albicans SC5314 [1] = test: In vivo model of disseminated candidiasis in BALB/c mice (survival, body weight, renal fungal burden); conditions: for survival efficacy relative to MTD1280: candidemia model, survival as metric, 0.1 mg/kg versus MTD1280 0.25 mg/kg, FIGS. 10 to 13; for renal fungal burden reduced to a greater extent than fluconazole, P (Fisher's LSD test): peptide 0.1 or 0.25 mg/kg versus fluconazole 5 mg/kg; for survival by end point analysis versus fluconazole: χ^2 analysis at day 30 p.i.; for survival compared to saline controls, P (log-rank analysis): observed 26 days p.i.; for survival compared to saline controls, P (log-rank analysis) / survival efficacy, comparison in words: FIG. 8
# Description: Mice were infected i.v. at T=0 with 3×105 blastospores of C. albicans SC5314.
# Mice were infected i.v. at T=0 with 3×10^5 blastospores of C. albicans SC5314. At T=24 h, mice were treated i.p. daily for 7 d w.
# Suitable cyclic tetradecapeptides can be identified by screening against a murine model for disseminated candidiasis. C. albicans SC5314 obtained from American Type Culture Collection can be used as a suitable reference strain. […] Typical antifungal drugs include caspofungin and fluconazole. Cyclic tetradecapeptides to be tested and antifungal drugs can be suspended or dissolved in water or isotonic saline and administered by one or more of intravenous, subcutaneous, intramuscular, and/or intraperitoneal injection.
# In vitro activity of synthetic cyclic tetradecapeptides and antifungal compounds can be determined using conventional culture techniques that are known in the art as described above in relation to RTD-1, and can be used to determine sub-antifungal concentrations. Systemic or disseminated candidiasis can be modeled in vivo by, for example, challenging BALB/c female mice with 0.15 to 2 mL of C. albicans (reference strain or resistant strain) at from about 2×10^5 to about 2×10^7 CFU/mL of the organism. Animals can the be treated with candidate synthetic cyclic tetradecapeptide before challenge with the pathogen, at the time of pathogen challenge, or after challenge with the pathogen. Antifungal drugs and/or candidate synthetic cyclic tetradecapeptide can be administered by intravenous, subcutaneous, intramuscular, and/or intraperitoneal injection in such an in vivo model of systemic or disseminated candidiasis.
# In activity studies the synthetic cyclic tetradecapeptide MTD1280 (SEQ ID NO. 6), which was identified initially as having significant antifungal activity, was used as a model peptide. Briefly, 7-8 week old, immunocompetent, female BALB/c mice were challenged i.v. at T=0 with 3×10^5 CFU of C. albicans SC5314. […] As shown, caspofungin (Caspo) is not effective against this strain of C. albicans.
# Candidate synthetic cyclic tetradecapeptides were pre-screened for tolerance by determining a lack of toxicity when administered at >5 mg/kg.
# C. albicans strain 53264 = conditions: cited from earlier work
# C. albicans strain 43001 = conditions: cited from earlier work
# C. albicans SC5314 [2] = conditions: strain SC5314, cited from earlier work
# C. albicans [3] = conditions: cited from earlier work
# [4] = system: susceptible and multiple drug resistant strains of C. albicans; conditions: cited from earlier work
# C. albicans [5] = test: In vitro antifungal activity, sub-antifungal concentration, C. albicans in general; format: cell-based, Candida albicans; conditions: in the presence of serum
# Description: Within the context of this application, a “sub-antifungal concentration” in regard to a fungal pathogen should be understood to be a concentration at which the compound so described has no antifungal effect when applied to the fungal pathogen in vitro (e.g. in a liquid culture medium), e.g. in the absence of host immune effectors.
# Basso et al. (Basso et al., “Rhesus theta defensin 1 promotes long term survival in systemic candidiasis by host directed mechanisms” Nature Scientific Reports (2019) 9: 16905) provides an example of determination of sub-antifungal concentration for the native θ-defensin RTD-1 in regard to different strains of Candida albicans. Cultures of different strains of C. albicans were established in RPMI media or RPMI media containing 50% serum. […] MFC was determined as the lowest concentration that provided 99% killing relative to the input inoculum. MIC was determined as the lowest concentration that inhibited growth.
# Based on such data, for C. albicans a sub-antifungal concentration of RTD-1 in the presence of serum would be less than 100 μg/mL. Such sub-antifungal concentrations can be determined experimentally (for example, by culture from a patient sample) or, preferably, from historical data. […]
# [6] = long term survivors 30 days p.i., FIG. 14
# [7] = 5 mg/kg i.p. daily for 7 d from 24 h p.i.
# [8] = 5 mg/kg i.p. once a day for 7 days
# [9] = RPMI, lowest concentration giving 99% killing
# [10] = RPMI, lowest concentration that inhibited growth
compound,measurement,setting,value
"MTD1283: synthetic cyclic tetradecapeptide θ-defensin analog, SEQ ID NO. 4, two disulfide bonds (cyclo(GVCICRRRVCICRR); disulfide (positions not given here))",survival efficacy relative to MTD1280,C. albicans SC5314 [1],equivalent or superior to MTD1280
same,"renal fungal burden reduced to a greater extent than fluconazole, P (Fisher's LSD test)",C. albicans SC5314 [1]; [6],7.4×10^−3
same,survival by end point analysis versus fluconazole,C. albicans SC5314 [1]; fluconazole 5 mg/kg,more effective than fluconazole
"CC[C@H](C)C[C@H](C)CCCCCCCCC(=O)N[C@H]1C[C@@H](O)[C@@H](NCCN)NC(=O)[C@@H]2[C@@H](O)CCN2C(=O)[C@H]([C@H](O)CCN)NC(=O)[C@H]([C@H](O)[C@@H](O)c2ccc(O)cc2)NC(=O)[C@@H]2C[C@@H](O)CN2C(=O)[C@H]([C@@H](C)O)NC1=O [Caspofungin, caspofungin]","survival compared to saline controls, P (log-rank analysis)",C. albicans SC5314 [1]; [7],3.4×10^−6
same,"survival efficacy, comparison in words",C. albicans SC5314 [1]; [8],not effective
same,MFC,C. albicans strain 53264; RPMI,>8 µg/mL
same,MIC,C. albicans strain 53264; RPMI,>8 µg/mL
same,MFC,C. albicans strain 43001; RPMI,2 µg/mL
same,MIC,C. albicans strain 43001; RPMI,2 µg/mL
same,MFC,C. albicans SC5314 [2]; [9],>256 µg/mL
same,MIC,C. albicans SC5314 [2]; [10],0.06 µg/mL
"OC(Cn1cncn1)(Cn1cncn1)c1ccc(F)cc1F [Fluconazole, fluconazole]","survival compared to saline controls, P (log-rank analysis)",C. albicans SC5314 [1]; [7],3.4×10^−6
same,renal fungal burden in kidney homogenates,"C. albicans SC5314 [1]; long term survivors 30 days p.i., peptide 0.1 or 0.25 mg/kg, fluconazole 5 mg/kg, FIG. 14",reduced fungal burden
same,MIC,C. albicans SC5314 [2]; [10],64 µg/mL
"MTD12811: synthetic cyclic tetradecapeptide θ-defensin analog, SEQ ID NO. 3, two disulfide bonds (cyclo(GVCSCRRRFCICRR); disulfide (positions not given here))",survival efficacy relative to MTD1280,C. albicans SC5314 [1],equivalent or superior to MTD1280
"MTD1280: model synthetic cyclic tetradecapeptide θ-defensin analog, SEQ ID NO. 6, used as reference peptide (GVCICRRRFCLCRR; cyclic; Synthetic cyclic peptide MTD1280)",survival benefit,"C. albicans SC5314 [1]; 0.1 mg/kg i.p. once a day for 7 days, FIG. 9",no survival benefit
same,"survival compared to saline controls, P (log-rank analysis)",C. albicans SC5314 [1]; 0.25 mg/kg i.p. daily for 7 d from 24 h p.i.,2.3×10^−7
same,"survival efficacy, comparison in words",C. albicans SC5314 [1]; 0.25 mg/kg i.p. once a day for 7 days,more effective than 5 mg/kg of RTD-1; also recorded: more effective than 5 mg/kg of fluconazole
same,transient mean reduction in bodyweight,"C. albicans SC5314 [1]; long term surviving treated candidemic mice, plateaued by day 10",15%
same,share of cohort that regained initial body weights,C. albicans SC5314 [1]; long term surviving treated mice; by day 3),90%
same,"renal fungal burden reduced to a greater extent than fluconazole, P (Fisher's LSD test)",C. albicans SC5314 [1]; [6],3×10^−3
"MTD12810: synthetic cyclic tetradecapeptide θ-defensin analog, SEQ ID NO. 2, two disulfide bonds (Cys3-Cys12, Cys5-Cys10) (cyclo(GVCSCRRRFCLCRR); disulfide 5-10, 3-12)",survival efficacy relative to MTD1280,C. albicans SC5314 [1],equivalent or superior to MTD1280
same,"renal fungal burden reduced to a greater extent than fluconazole, P (Fisher's LSD test)",C. albicans SC5314 [1]; [6],3.5×10^−5
same,survival by end point analysis versus fluconazole,C. albicans SC5314 [1]; fluconazole 5 mg/kg,more effective than fluconazole
"MTD1288: synthetic cyclic tetradecapeptide θ-defensin analog, SEQ ID NO. 5, two disulfide bonds (cyclo(GLCICRRRACLCRR); disulfide (positions not given here))",survival efficacy relative to MTD1280,C. albicans SC5314 [1],equivalent or superior to MTD1280
same,"renal fungal burden reduced to a greater extent than fluconazole, P (Fisher's LSD test)",C. albicans SC5314 [1]; [6],0.02
same,survival by end point analysis versus fluconazole,C. albicans SC5314 [1]; fluconazole 5 mg/kg,more effective than fluconazole
"RTD-1: naturally occurring rhesus θ-defensin, cyclic octadecapeptide with three disulfide bonds, SEQ ID NO. 1 (cyclo(GFCRCLCRRGVCRCICTR); disulfide (positions not given here); listed as Macaca mulatta)","survival compared to saline controls, P (log-rank analysis)",C. albicans SC5314 [1]; [7],3.4×10^−6
same,"survival efficacy, comparison in words",C. albicans SC5314 [1]; [8],more effective than 5 mg/kg of fluconazole
same,MFC,C. albicans strain 53264; 50% serum,>100 µg/mL
same,MIC,C. albicans strain 53264; 50% serum,>100 µg/mL
same,MFC,C. albicans strain 53264; RPMI,12.5 µg/mL
same,MIC,C. albicans strain 53264; RPMI,12.5 µg/mL
same,MFC,C. albicans strain 43001; 50% serum,>100 µg/mL
same,MIC,C. albicans strain 43001; 50% serum,>100 µg/mL
same,MFC,C. albicans strain 43001; RPMI,12.5 µg/mL
same,MIC,C. albicans strain 43001; RPMI,6.25 µg/mL
same,in vitro antifungal activity in the presence of serum,"C. albicans [3]; in vitro studies, serum",abolished by the presence of serum
same,in vitro concentration required relative to concentrations effective in vivo,C. albicans [3]; in vitro versus murine model,≥ 50 fold
same,long term production of pro-inflammatory cytokines,"[4]; in vivo, treatment with RTD-1",reduction in long term production of pro-inflammatory cytokines
same,efficacy in animal models of systemic candidiasis,[4]; susceptible and multiple drug resistant strains,effective
same,MFC,C. albicans SC5314 [2]; 50% serum,>100 µg/mL
same,MIC,C. albicans SC5314 [2]; 50% serum,>100 µg/mL
same,MFC,C. albicans SC5314 [2]; [9],25 µg/mL
same,MIC,C. albicans SC5314 [2]; [10],12.5 µg/mL
same,sub-antifungal concentration,C. albicans [5],less than 100 μg/mL
